“Also recorded” adds a separate entry of the source.

The test system of test [1] is human leutecyte strain cells (RPMI-8402). Put plainly: Rapid inspection of carcinostatic substances by counting divided cells with DAPI. The test is classed as cell-based. To be noted: for number of the divided cells compared with the control (FIG. 15): 0.05 μg/ml VCR, 0.05 μg/ml VDS, 20 μg/ml MST-16, with 1 μg/ml DAPI; for division phases of the divided cells (microscope observation): ratio of the divided cells increased after the initiation of the cultivation, no anaphase or telophase cells observed. Here is the method:
After over a certain number of cancer cells are prepared by cultivation, a carcinostatic substance is added to the cancer cells. The number of the cells under the cell division at the respective measuring times is counted while continuing the cultivation. […] Accordingly, the effectiveness of the carcinostatic substance can be inspected by counting the number of the cells under the cell division among a certain number (for example, one thousand) of cells several times, comparing the said number with that of the former counting or the previous counting thereof and grasping the progress of the cell division by means of the increase or the decrease of the above comparison. If the DAPI is added with the carcinostatic substance during this procedure, the accurate counting of the number of the divided cells can be performed because the cells under the any phase of the cell division can be recognized. When the number of the divided cells decreases as a result of the comparison between the measurement values, it is judged that the multiplication of the cancer cells is depressed, or the function of the carcinostatic substance is performed. When, on the other hand, the number of the divided cells increases compared with the control, a certain function of the carcinostatic substance is judged to be performed. […] To the respective cultivation liquids were added, together with 1 μg/ml of the DAPI, (1) the control (no addition of the carcinostatic substance), (2) 5 μg/ml of CPT (camptotecin), (3) 10 μg/ml of CPT-11 ([…]), (4) 0.06 μg/ml of ADR (adriamycin), (5) 0.05 μg/ml of DNR (daunomycin), (6) 1 μ/ml of etoposide, (7) 20 μg/ml of MST-16 (sopsoxane), (8) 1 μg/ml of […]), (9) μg/ml of Act-D (actinomycin D), (10) 0.1 μg/ml of mitoxantrone. (11) 20 μg/ml of 5-FU, (12) 10 μg/ml of Ara-C (cytosinarabinoside) (13) 50 μg/ml of hydroxyurea, (14) 2 μg/ml of Aphidicolin, (15) 10 μg/ml of MTX (mesotroxate), (16) 0.05 μg/ml of VCR (vincristin), (17) 0.05 μg/ml of […]). (5) μg/ml of cisplatin, (18) 10 μg/ml of bleomycin, (20)10 μg/ml of MMC (mitomycin C) and (21) 5 μg/ml of cyclophospamide (endoxane). The samples were sampled from the respective cultivation liquids after one hour, […], 24 hours and then every 24 hour from the initiation of the cultivation. The samples were evaluated in accordance with the procedures of the preceding Examples. The results are shown in a graph of FIG. 15.

The test system of test [2] is human leutecyte strain cell (RPMI-8402). Put plainly: Extinction effect of compatible administration of l-OHP and a compatible agent on tumor cells (compatible efficiency OE). The class given is cell-based. To be noted: for Compatible Effects of l-OHP and Compatible Agent, Simultaneous Administration: both added day 1. Here is the method: In the evaluation of the extinction effect of the tumor cells of the respective combinations, a pure extinction effect produced by the compatible administration of the compatible agent and the l-OHP is calculated by subtracting an extinction effect of a control (no carcinostatic substance is employed).
The compatibly administration effect is calculated by employing an Equation (1) described later. When the value (%) calculated by this Equation is between 85 and 115%, the compatible administration effect is evaluated to be an additive effect. When the value is below 85%, it is evaluated to be below the additive effect. When the value is over 115%, it is evaluated to be a synergistic effect, ±15% is a reliability limit or a measurement error.
A target tumor cell was a human leutecyte strain cell (RPMI-8402 of Gibuko K.K.). To these cells was added blood serum of a cow embryo (15%, Gibuko K.K.) to prepare a cell floating liquid of which the number of the cells was 10^6/ml in a cultivation bottle (tradename; Sumiron of Sumitomo Bakelite o., Ltd.) having a volume of 6 ml. A plenty of the cultivation bottles having the cell floating liquid therein were prepared, and the following experiments were conducted while selecting one kind of a compatible agent among cisplatin, 5-FU, irinotecane, adriamycin, etoposide, mitomycin, mitoxantrone, bleomycin, vincristin and vindecin. The time schedules of the controls (no addition of medicines, addition of only the l-OHP and addition of only a compatible agent, and specified in the below items (1) to (4)) and of the compatible administration of the compatible agent and the l-OHP are shown in FIG. 10.
(1) No medicine was added (control).
(2) Only the l-OHP was added at a second day.
(3) A large amount of compatible agents were added at a first day ([…] of the cisplatin, 10 μg/ml of the 5-FU, 0.05 μg/ml of the adriamycin and 1 μg/ml of the etoposide, and for the comparison purpose, 0.05 μg/ml of the vincristin and 0.06 μg/ml of the vindecin). The adding amount of the irinotecano was fixed to 10 μg/ml, and the addition amount of the l-OHP was 5 μg/ml.
(4) A small amount of compatible agents were added at a first day (0.5 μg/ml of the cisplatin, 5 μg/ml of the 5-FU, 0.01 μg/ml of the adriamycin and 0.5 μg/ml of the etoposide, and for the comparison purpose, 0.01 μg/ml of the vincristin and 0.01 μg/ml of the vindecin). The adding amount of the irinotecane was fixed to 10 μg/ml, and the addition amount of the l-OHP was 1 μg/ml.
(5) The l-OHP and a large amount (the same as that of the above item (3) and so forth in the following items) of the compatible agents were simultaneously added at a first day.
(6) The l-OHP and a small amount (the same as that of the above item (4) and so forth in the following items) of the compatible agents were simultaneously added at a first day.
(7) The l-OHP was added at a first day and a large amount of the compatible agents were added at a second day.
(8) The l-OHP was added at a first day and a small amount of the compatible agents were added at a second day.
(9) The l-OHP was added at a first day and a large amount of the compatible agents were added at a third day.
(10) The l-OHP was added at a first day and a small amount of the compatible agents were added at a third day.
(11) The l-OHP was added at a first day and a large amount of the compatible agents were added at a fourth day.
(12) The l-OHP was added at a first day and a small amount of the compatible agents were added at a fourth day.
(13) A large amount of the compatible agents were added at a first day and the l-OHP was added at a second day.
(14) A small amount of the compatible agents were added at a first day and the l-OHP was added at a second day.
(15) A large amount of the compatible agents were added at a first day and the l-OHP was added at a third day.
(16) A small amount of the compatible agents were added at a first day and the l-OHP was added at a third day.

Where [3] appears, read: larger dosage of compatible agent (μg/ml: cisplatin 1, 5-FU 10, irinotecane 10, adriamycin 0.05, vincristin 0.05, vindecin 0.05, etoposide 1, bleomycin 10, mitoxantrone 0.1, mitomycine 1), l-OHP 1 μg/ml (5 μg/ml with irinotecane) added day 1.
Where [4] appears, read: larger dosage of compatible agent (μg/ml: cisplatin 1, 5-FU 10, irinotecane 10, adriamycin 0.05, vincristin 0.05, vindecin 0.05, etoposide 1, bleomycin 10, mitoxantrone 0.1, mitomycine 1), l-OHP 1 μg/ml (5 μg/ml with irinotecane).
Setting [5] is: larger dosage of compatible agent added day 1 (μg/ml: cisplatin 1, 5-FU 10, irinotecane 10, adriamycin 0.05, vincristin 0.05, vindecin 0.05, etoposide 1, bleomycin 10, mitoxantrone 0.1, mitomycine 1), l-OHP 1 μg/ml (5 μg/ml with irinotecane).
[6] abbreviates: smaller dosage of compatible agent (μg/ml: cisplatin 0.5, 5-FU 5, irinotecane 10, adriamycin 0.01, vincristin 0.01, vindecin 0.01, etoposide 0.5, bleomycin 1, mitoxantrone 0.05, mitomycine 0.5), l-OHP 1 μg/ml added day 1.
The mark [7] stands for this setting: smaller dosage of compatible agent (μg/ml: cisplatin 0.5, 5-FU 5, irinotecane 10, adriamycin 0.01, vincristin 0.01, vindecin 0.01, etoposide 0.5, bleomycin 1, mitoxantrone 0.05, mitomycine 0.5), l-OHP 1 μg/ml.
The mark [8] stands for this setting: smaller dosage of compatible agent added day 1 (μg/ml: cisplatin 0.5, 5-FU 5, irinotecane 10, adriamycin 0.01, vincristin 0.01, vindecin 0.01, etoposide 0.5, bleomycin 1, mitoxantrone 0.05, mitomycine 0.5), l-OHP 1 μg/ml.

For `CC(C)COC(=O)OCN1C(=O)CN(CCN2CC(=O)N(COC(=O)OCC(C)C)C(=O)C2)CC1=O` [MST-16, sopsoxane], in test [1], the “number of the divided cells compared with the control (FIG. 15)” value is “increase of the number of the divided cells was momentarily observed”; the “division phases of the divided cells (microscope observation)” value is “the division prophase and the division metaphase”.
Turning to `CC[C@]1(O)C[C@H]2CN(CCc3c([nH]c4ccccc34)[C@@](C(=O)OC)(c3cc4c(cc3OC)N(C=O)[C@H]3[C@@](O)(C(=O)OC)[C@H](OC(C)=O)[C@]5(CC)C=CCN6CC[C@]43[C@@H]65)C2)C1` [vincristin], the “compatible administration effect with l-OHP, summary in words” value in test [2] is “the additive effect at best; also recorded: no synergistic effects can be obtained in all the combinations and the additive effects can be obtained in most combinations”. For the same compound, in test [2] (setting [3]), the “Compatible Effects of l-OHP and Compatible Agent, Time Lag Administration, Addition Administration of Compatible Agent day 2” value (from here on “Compatible Effects … of Compatible Agent day 2”) was “Δ (Δ: Below Additive Effect)”; the “Compatible Effects of l-OHP and Compatible Agent, Time Lag Administration, Addition Administration of Compatible Agent day 3” value (“Compatible Effects … of Compatible Agent day 3” below) is listed as “Δ (Δ: Below Additive Effect)”; the “Compatible Effects of l-OHP and Compatible Agent, Time Lag Administration, Addition Administration of Compatible Agent day 4” value (shortened to “Compatible Effects … of Compatible Agent day 4”) is “◯ (◯: Additive Effect)”. Moreover, the “Compatible Effects of l-OHP and Compatible Agent, Simultaneous Administration” value (“Compatible Effects … Simultaneous Administration” for short) in test [2] (setting [4]) is given as “Δ (Δ: Below Additive Effect)”. In test [2] (setting [5]), the “Compatible Effects of l-OHP and Compatible Agent, Time Lag Administration, Addition Administration of l-OHP day 2” value (“Compatible Effects … of l-OHP day 2” for short) was “◯ (◯: Additive Effect)”; the “Compatible Effects of l-OHP and Compatible Agent, Time Lag Administration, Addition Administration of l-OHP day 3” value (“Compatible Effects … of l-OHP day 3” for short) is given as “Δ (Δ: Below Additive Effect)”; the “Compatible Effects of l-OHP and Compatible Agent, Time Lag Administration, Addition Administration of l-OHP day 4” value (“Compatible Effects … of l-OHP day 4” for short) was “◯ (◯: Additive Effect)”. For the same compound, in test [2] (setting [6]), the “Compatible Effects … of Compatible Agent day 2” value was “◯ (◯: Additive Effect)”; the “Compatible Effects … of Compatible Agent day 3” value is on record as “Δ (Δ: Below Additive Effect)”; the “Compatible Effects … of Compatible Agent day 4” value is listed as “◯ (◯: Additive Effect)”. The “Compatible Effects … Simultaneous Administration” value in test [2] (setting [7]) was “Δ (Δ: Below Additive Effect)”. Further, in test [2] (setting [8]), the “Compatible Effects … of l-OHP day 2” value is “◯ (◯: Additive Effect)”; the “Compatible Effects … of l-OHP day 3” value is recorded as “◯ (◯: Additive Effect)”; the “Compatible Effects … of l-OHP day 4” value is “◯ (◯: Additive Effect)”. Also, in test [1], the “number of the divided cells compared with the control (FIG. 15)” value is “remarkable increases of the numbers of the divided cells”; the “division phases of the divided cells (microscope observation)” value is “the division prophase and the division metaphase”.
bleomycin: the “compatible administration effect with l-OHP, summary in words” value in test [2] was “the additive effect or the synergistic effect regardless of the administration method and the dosage in almost all the cases; also recorded: synergistic effects can be obtained in most combinations when the l-OHP is added later at a third day and a fourth day”. In test [2] (setting [3]), the “Compatible Effects … of Compatible Agent day 2” value was “Δ (Δ: Below Additive Effect)”; the “Compatible Effects … of Compatible Agent day 3” value is on record as “◯ (◯: Additive Effect)”; the “Compatible Effects … of Compatible Agent day 4” value was “• (•: Synergistic Effect)”. Moreover, the “Compatible Effects … Simultaneous Administration” value in test [2] (setting [4]) is “Δ (Δ: Below Additive Effect)”. Also, in test [2] (setting [5]), the “Compatible Effects … of l-OHP day 2” value is recorded as “Δ (Δ: Below Additive Effect)”; the “Compatible Effects … of l-OHP day 3” value is “• (•: Synergistic Effect)”; the “Compatible Effects … of l-OHP day 4” value was “• (•: Synergistic Effect)”. In test [2] (setting [6]), the “Compatible Effects … of Compatible Agent day 2” value is listed as “Δ (Δ: Below Additive Effect)”; the “Compatible Effects … of Compatible Agent day 3” value is recorded as “• (•: Synergistic Effect)”; the “Compatible Effects … of Compatible Agent day 4” value is on record as “Δ (Δ: Below Additive Effect)”. For the same compound, the “Compatible Effects … Simultaneous Administration” value in test [2] (setting [7]) is reported as “• (•: Synergistic Effect)”. In test [2] (setting [8]), the “Compatible Effects … of l-OHP day 2” value is reported as “◯ (◯: Additive Effect)”; the “Compatible Effects … of l-OHP day 3” value is reported as “• (•: Synergistic Effect)”; the “Compatible Effects … of l-OHP day 4” value is “◯ (◯: Additive Effect)”.
